In US20240197871A1, “COMBINATION OF A CAR T CELL THERAPY AND AN IMMUNOMODULATORY COMPOUND FOR TREATMENT OF LYMPHOMA” (Juno Therapeutics, Inc., priority 2021, published 2024):

How the values were obtained:
[1] = test system: Granta-519 lymphoma tumor spheroids or A549 tumor spheroids; assay: Chronic stimulation with rescue treatment during re-challenge with tumor spheroids; format: cell-based
Procedure: Anti-CD19 CAR-expressing T cells, produced as described in Example 1, were chronically stimulated as described in Example 3, but in the absence of Compound C during stimulation. Instead, chronically stimulated CAR T cells were treated with Compound C during re-challenge with Granta-519 lymphoma tumor spheroids or A549 tumor spheroids, after which cytolytic activity, cytokine production, and gene expression of the CAR T Cells was assessed.
FIGS. 4B and 4C show the volume of tumor spheroids co-cultured with anti-CD19 CAR T cells in the presence of Compound C.

anti-CD19 CAR T cells [2] = assay: Intracellular cytokine levels in stimulated anti-CD19 CAR T cells; format: cell-based, human; details: 72 hours, 30 μg/mL anti-idiotypic antibody
Procedure: (§1) Anti-CD19 CAR-expressing T cell compositions were generated from three different healthy donors as described in Example 1. Prior to use, cryopreserved CD4+ and CD8+ engineered cell compositions were thawed and combined at approximately a 1:1 CD4:CD8 ratio.
(§2) Following incubation, stimulated CAR T cells were harvested, washed twice in media, and assessed.
Intracellular cytokine levels in CAR T cells that had been stimulated for 72 hours with 30 μg/mL of anti-idiotypic antibody were determined. To do so, supernatants were collected from the stimulated CAR T cells and were analyzed for interferon-γ (IFN-γ) and interleukin-2 (IL-2) content using a multiplex electrochemiluminescence assay. To stain for intracellular cytokines, including Perforin and Granzyme B, cells were fixed and permeabilized using a Foxp3/Transcription Factor Staining Buffer Set (Thermo Fisher Scientific). Intracellular cytokine levels of IFNγ, perforin, granzyme B, and IL-2 were then determined by flow cytometry. […] Log2 fold-change values greater than zero are indicated with a “+” in FIG. 2F. Similar results were observed when measuring the percentage of cells positive for the cytokines.

[3] = test system: CAR-expressing CD8 T cells; assay: T cell memory markers CD27/CCR7 after chronic stimulation (flow cytometry); format: cell-based, human
Procedure: Similar results are shown in FIG. 7B for a separate experiment in which CAR T cells were chronically stimulated for 7 days in the presence or absence of Compound C. In this experiment, Compound C was present at (i) 50 nM for one day and 1 nM for the remaining six days of stimulation, (ii) 25 nM for one day and 0.5 nM for the remaining six days of stimulation, (iii) 10 nM for all seven days of stimulation, or (iv) 1 nM for all seven days of stimulation. Stimulated CAR T cells were then re-challenged with Raji lymphoma tumor spheroids in the absence of Compound C, after which cytolytic activity was assessed over a four-day period. […] The CAR T cells stimulated for seven days in the presence or absence of Compound C were also analyzed for phenotypic T cell memory markers using flow cytometry following chronic stimulation. […] CD27/CCR7 expression, which is a marker for less differentiated, naïve-like T cells, was highest in CAR-expressing CD8 T cells stimulated in the presence of Compound C at 50 nM for one day and 1 nM for the remaining six days of stimulation (* P<0.05).

anti-CD19 CAR T cells [4] = assay: Cell cycle phase (EdU incorporation) of stimulated anti-CD19 CAR T cells; format: cell-based, human; details: for percentage of cells in G1 phase: P<0.001
Procedure: as §1, §2
The cell cycle phases of CAR T cells treated with the compounds during CAR-specific stimulation with the plate-bound anti-idiotypic antibody were determined using EDU incorporation for two hours after three days of stimulation. For EDU incorporation, CAR T cells were labeled using the Click-iT™ EdU Cell Proliferation Kit (Thermo Fisher Scientific), after which the prepared cells were analyzed by flow cytometry. […] Without wishing to be bound by theory, the accumulation of CAR T cells in G1 phase may account for one of the mechanisms by which the compounds can limit onset of exhaustion during chronic stimulation, as shown in Example 3 below.

Ikaros = molecular target: T1, Ikaros (Homo sapiens, UniProt Q13422+Q96SW2); assay: Ikaros expression in CAR T cells after six days of chronic stimulation (MFI); format: cell-based; details: higher concentrations (e.g., 0.01 μM and 0.1 μM); compared with Compound 2
T1 construct: analyzed by flow cytometry to assess intracellular levels of Ikaros and Aiolos in CAR+ T cells; endogenous in cells; host or cells: primary human CD4+ and CD8+ T cells from healthy donors, lentivirally transduced with an anti-CD19 CAR
Procedure: To simulate conditions of chronic stimulation, anti-CD19 CAR-expressing T cells, produced as described in Example 1, were incubated with plate-bound CAR-specific anti-idiotypic antibody (see, e.g., WO2018/023100) and incubated at 37° C. for a period of six days. […] For instance, CAR T cells that were re-challenged with CD19+ tumor cells following the six-day stimulation had reduced IFNγ and IL-2 cytokine production (FIG. 3A) and reduced cytolytic function (FIG. 3B) compared to freshly thawed CAR T cells not subjected to the six-day stimulation.
The ability of Compound C to block or reduce this CAR T cell hypofunctionality following chronic stimulation was assessed. To do so, engineered CAR T cells were concurrently treated with Compound C, Compound 2, or a vehicle control during the six-day stimulation. Stimulated CAR T cells were then harvested, washed twice in media, and re-challenged with Granta-519 lymphoma tumor spheroids (that had been transduced with IncuCyte NucLight Red) in the absence of Compound C, after which cytolytic activity was assessed by loss of red fluorescence over time and averaged measurement of tumor spheroid size at various times following co-culture with CAR-T cells. Cytokine production, Ikaros expression, and gene expression of the CAR T Cells also were assessed. […]

RL CD19+ tumor cells = assay: Cytolytic function: co-culture of anti-CD19 CAR T cells with RL CD19+ tumor cells; format: cell-based; details: E:T 1:1
Procedure: To do so, CAR T cells were plated on ploy-D-lysine plates. CD19+ tumor cells transduced with IncuCyte® NucLight Red (Essen BioScience Inc.) were then added to the CAR T cells in addition to Compound C or vehicle control. Tumor cell number was measured over multiple days.
Treatment with CAR T cells in combination with either immunomodulatory compound led to lower tumor cell numbers than did CAR T cells alone or the compounds alone.

anti-CD19 CAR T cells [5] = assay: Proliferation (cell doublings) of stimulated anti-CD19 CAR T cells, IncuCyte; format: cell-based, human
Procedure: as §1, §2
Proliferation of T cells during culture with the plate-bound anti-idiotypic antibody was monitored for seven days using an IncuCyte® Live Cell Analysis System (Essen BioScience Inc.), and the number of cell doublings of cells stimulated with 30 μg/mL of anti-idiotypic antibody is shown in FIG. 2B and FIG. 2C for the three donors (mean±SEM).

T1 sequence (Q13422 whole entry): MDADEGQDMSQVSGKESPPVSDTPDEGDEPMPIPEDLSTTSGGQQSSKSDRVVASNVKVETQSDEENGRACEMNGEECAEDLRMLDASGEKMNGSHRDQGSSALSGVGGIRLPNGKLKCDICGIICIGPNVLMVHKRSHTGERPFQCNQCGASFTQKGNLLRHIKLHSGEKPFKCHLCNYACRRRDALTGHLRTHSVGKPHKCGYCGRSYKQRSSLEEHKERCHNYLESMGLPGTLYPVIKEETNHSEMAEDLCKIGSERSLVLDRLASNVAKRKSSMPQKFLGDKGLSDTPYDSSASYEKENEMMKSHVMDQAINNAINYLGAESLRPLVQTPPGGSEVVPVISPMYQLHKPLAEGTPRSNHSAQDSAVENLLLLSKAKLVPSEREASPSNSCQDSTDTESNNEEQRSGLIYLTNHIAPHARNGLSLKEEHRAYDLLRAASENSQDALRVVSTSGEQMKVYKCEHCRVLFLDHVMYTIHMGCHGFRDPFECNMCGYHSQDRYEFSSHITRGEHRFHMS
T1 sequence (Q96SW2 whole entry): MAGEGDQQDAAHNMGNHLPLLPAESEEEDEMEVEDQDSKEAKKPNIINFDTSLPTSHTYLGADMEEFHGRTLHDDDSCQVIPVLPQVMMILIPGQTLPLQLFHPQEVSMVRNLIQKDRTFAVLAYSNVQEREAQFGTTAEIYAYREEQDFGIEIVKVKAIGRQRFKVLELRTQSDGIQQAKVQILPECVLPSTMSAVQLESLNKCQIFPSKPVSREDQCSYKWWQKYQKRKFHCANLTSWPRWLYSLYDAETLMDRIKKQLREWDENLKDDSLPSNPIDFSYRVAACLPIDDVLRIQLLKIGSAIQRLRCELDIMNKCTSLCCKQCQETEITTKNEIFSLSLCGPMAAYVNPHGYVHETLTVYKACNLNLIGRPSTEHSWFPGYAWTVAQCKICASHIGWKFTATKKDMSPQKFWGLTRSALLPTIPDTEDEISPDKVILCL
T1 sequence (Q16531 whole entry partner): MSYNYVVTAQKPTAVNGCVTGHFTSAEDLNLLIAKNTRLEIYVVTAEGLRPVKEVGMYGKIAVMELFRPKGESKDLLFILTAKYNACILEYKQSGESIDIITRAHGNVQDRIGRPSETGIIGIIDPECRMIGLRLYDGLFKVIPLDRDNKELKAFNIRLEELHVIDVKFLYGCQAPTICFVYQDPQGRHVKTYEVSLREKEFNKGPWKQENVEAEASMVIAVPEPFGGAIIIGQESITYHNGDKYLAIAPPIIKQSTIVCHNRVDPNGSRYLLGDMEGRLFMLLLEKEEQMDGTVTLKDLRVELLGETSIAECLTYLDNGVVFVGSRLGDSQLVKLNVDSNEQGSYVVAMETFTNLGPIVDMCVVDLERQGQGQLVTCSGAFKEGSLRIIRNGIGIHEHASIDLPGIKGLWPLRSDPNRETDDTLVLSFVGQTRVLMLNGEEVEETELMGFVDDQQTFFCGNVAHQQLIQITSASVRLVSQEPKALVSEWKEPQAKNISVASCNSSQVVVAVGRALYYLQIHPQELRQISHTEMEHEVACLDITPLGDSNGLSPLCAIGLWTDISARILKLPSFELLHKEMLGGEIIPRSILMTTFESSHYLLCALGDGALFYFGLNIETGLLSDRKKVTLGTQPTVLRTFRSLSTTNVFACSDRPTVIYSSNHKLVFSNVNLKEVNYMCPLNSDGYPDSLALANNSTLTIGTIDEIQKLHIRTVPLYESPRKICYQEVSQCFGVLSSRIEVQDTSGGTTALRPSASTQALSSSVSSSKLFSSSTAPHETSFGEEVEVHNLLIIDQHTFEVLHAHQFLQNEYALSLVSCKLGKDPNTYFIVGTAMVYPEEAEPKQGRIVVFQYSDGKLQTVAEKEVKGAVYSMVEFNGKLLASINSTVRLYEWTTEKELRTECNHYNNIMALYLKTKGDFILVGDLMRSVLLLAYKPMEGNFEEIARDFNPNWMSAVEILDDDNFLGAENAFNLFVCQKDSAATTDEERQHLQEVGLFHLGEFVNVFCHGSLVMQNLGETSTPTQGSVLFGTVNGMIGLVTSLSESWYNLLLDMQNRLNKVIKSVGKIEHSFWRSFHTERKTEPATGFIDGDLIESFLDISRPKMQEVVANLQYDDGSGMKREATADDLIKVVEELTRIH

O=C1CC[C@H](N2C(=O)c3cccc(NCc4ccc(CN5CC(N6CCOCC6)C5)cc4F)c3C2=O)C(=O)N1 [Compound C, (S)-2-(2,6-dioxopiperidin-3-yl)-4-((2-fluoro-4-((3-morpholinoazetidin-1-yl)methyl)benzyl)amino)isoindoline-1,3-dione]
tumor volume vs chronically stimulated CAR T cells alone or compound alone ([1]; 1 nM during re-challenge (rescue) with CAR T cells, P<0.0001): more reduced
IFNγ cytokine production five days after re-challenge ([1]; 1 nM during re-challenge (rescue), P<0.0001): highest
tumor volume vs chronically stimulated CAR T cells alone or compound alone ([1]; 10 nM during re-challenge (rescue) with CAR T cells, P<0.0001): more reduced
IFNγ cytokine production five days after re-challenge ([1]; 10 nM during re-challenge (rescue), P<0.05): increased
intracellular expression of effector cytokines (IFNγ, perforin, granzyme B), fold change in MFI vs vehicle (anti-CD19 CAR T cells [2]): increased production of certain cytokines
CD27/CCR7 expression ([3]; 50 nM for one day and 1 nM for the remaining six days of stimulation, P<0.05): highest
percentage of CD27+/CCR7+ cells vs stimulation in the absence of compound ([3]; seven days of chronic stimulation in the presence of compound): higher percentages of CD27+/CCR7+ cells
dose with similar effects on percentage of cells in G1 phase, compared to the other compounds tested (anti-CD19 CAR T cells [4]): ten- or hundred-fold lower dose
percentage of cells in G1 phase (anti-CD19 CAR T cells [4]; 1 nM): increased
percentage of cells in G1 phase (anti-CD19 CAR T cells [4]; 10 nM): increased
effect on percentage of cells in G1 phase compared with the other compounds (anti-CD19 CAR T cells [4]; at all doses tested): most effect on the percentage of cells in G1 phase
Ikaros expression (MFI) after six days of chronic stimulation (Ikaros): lowest
RL tumor cell number vs CAR T cells alone or compound alone (RL CD19+ tumor cells; compound at 0.001 μM with anti-CD19 CAR T cells): lower
RL tumor cell number vs CAR T cells alone or compound alone (RL CD19+ tumor cells; compound at 0.01 μM with anti-CD19 CAR T cells): lower
RL tumor cell number vs CAR T cells alone or compound alone (RL CD19+ tumor cells; compound at 0.1 μM with anti-CD19 CAR T cells): lower
CAR T cell proliferation (anti-CD19 CAR T cells [5]; 1 nM, P<0.001): decreased
CAR T cell proliferation (anti-CD19 CAR T cells [5]; 10 nM, P<0.0001): further decreased
decrease of cell doublings compared with the other compounds (anti-CD19 CAR T cells [5]; at all doses tested): greatest decrease of doublings
